Paper PMC7145665, “A pre-catalytic non-covalent step governs DNA polymerase β fidelity” (Nucleic Acids Research, 2019)

Experiments:
WT pol β = molecular target: T1, WT pol β (Homo sapiens, UniProt P06746); test: Single turnover polymerase activity (rapid-quench), WT pol β; assay type: biochemical; details: for Specificity (kpol/KD) / kpol / Kd: templating base C; for Kd: apparent dNTP dissociation constant; for D KD (i/c): KD(incorrect)/KD(correct) / D kpol (c/i): kpol(correct)/kpol(incorrect): dCTP incorrect, dGTP correct
T1 construct: made in house
Experimental: (§1) A solution containing 50 nM DNA and 200 nM polymerase was rapidly mixed with varying concentrations of dNTP at 37 °C in 50 mM Tris pH 8.0, 20 mM NaCl, 10 mM MgCl2, 2 mM DTT and 10% glycerol using a KinTek rapid-quench flow apparatus. Reactions were quenched with EDTA and the product was separated from the initial reactant on a 20% polyacrylamide gel containing 8 M urea. Rate of phosphodiester bond formation (kpol) and the apparent dNTP dissociation constant (KD) were extracted as previously reported ([16]). Fidelity was calculated using the catalytic specificity (kpol/KD) for correct (dGTP) and incorrect (dCTP): (kpol/KD)correct/(kpol/KD) incorrect ([37]).

K289M pol β = molecular target: T2, K289M pol β (Homo sapiens, UniProt P06746, K289M); test: Single turnover polymerase activity (rapid-quench), K289M pol β; assay type: biochemical; details: for Specificity (kpol/KD) / kpol / Kd: templating base C; for Kd: apparent dNTP dissociation constant; for D KD (i/c): KD(incorrect)/KD(correct) / D kpol (c/i): kpol(correct)/kpol(incorrect): dCTP incorrect, dGTP correct
T2 construct: made in house
Experimental: as §1

[1] = set-up: method as in earlier work; details: pKa4 of the leaving group (β,γ-bridging group modified) ref 19, 22, 23; cited from earlier work
[2] = APC in Control sequence, listed as O
[3] = Control in APC sequence, listed as O

Row | Compound | Specificity (kpol/KD) (WT pol β; APC in Control sequence) | kpol (WT pol β; APC in Control sequence) | Specificity (kpol/KD) (WT pol β; APC sequence) | kpol (WT pol β; APC sequence) | Specificity (kpol/KD) (WT pol β; Control in APC sequence) | kpol (WT pol β; Control in APC sequence) | Specificity (kpol/KD) (WT pol β; Control sequence) | kpol (WT pol β; Control sequence) | Kd (WT pol β; APC in Control sequence) | Kd (WT pol β; APC sequence) | Kd (WT pol β; Control in APC sequence) | Kd (WT pol β; Control sequence) | Specificity (kpol/KD) (K289M pol β; APC in Control sequence) | kpol (K289M pol β; APC in Control sequence) | kpol (K289M pol β; APC sequence) | kpol (K289M pol β; Control sequence) | Kd (K289M pol β; APC in Control sequence) | Kd (K289M pol β; APC sequence) | Kd (K289M pol β; Control in APC sequence) | Kd (K289M pol β; Control sequence) | also measured
1 | Nc1nc2c(ncn2C2CC(O)C(COP(=O)(O)OP(=O)(O)C(Cl)P(=O)(O)O)O2)c(=O)[nH]1 (mixture of isomers) [CHCl] | 2.9e+06 M⁻¹ s⁻¹ | 21.7 s⁻¹ | 2.6e+06 M⁻¹ s⁻¹ | 20.3 s⁻¹ | 2.1e+06 M⁻¹ s⁻¹ | 11.9 s⁻¹ | 1.18e+07 M⁻¹ s⁻¹ | 5.90 s⁻¹ | 7.5 µM | 7.8 µM | 5.6 µM | 0.5 µM | 140000 M⁻¹ s⁻¹ | 1.37 s⁻¹ | 0.80 s⁻¹ | 1.18 s⁻¹ | 10 µM | 2 µM | 6.5 µM | 2.85 µM | Specificity (kpol/KD) (K289M pol β; APC sequence): 400000 M⁻¹ s⁻¹; Specificity (kpol/KD) (K289M pol β; Control in APC sequence): 160000 M⁻¹ s⁻¹; kpol (K289M pol β; Control in APC sequence): 1.01 s⁻¹; Specificity (kpol/KD) (K289M pol β; Control sequence): 410000 M⁻¹ s⁻¹
2 | Nc1nc2c(ncn2C2CC(O)C(COP(=O)(O)OP(=O)(O)C(F)P(=O)(O)O)O2)c(=O)[nH]1 (mixture of isomers) [CHF] | 4.8e+06 M⁻¹ s⁻¹ | 25.1 s⁻¹ | 4.9e+06 M⁻¹ s⁻¹ | 36.4 s⁻¹ | 9e+06 M⁻¹ s⁻¹ | 19.9 s⁻¹ | 2.4e+06 M⁻¹ s⁻¹ | 10.2 s⁻¹ | 5.2 µM | 7.5 µM | 2.2 µM | 4.2 µM | 1.31e+06 M⁻¹ s⁻¹ | 1.36 s⁻¹ | 0.90 s⁻¹ | 1.50 s⁻¹ | 1.04 µM | 1.6 µM | 1.2 µM | 1.3 µM | Specificity (kpol/KD) (K289M pol β; APC sequence): 560000 M⁻¹ s⁻¹; Specificity (kpol/KD) (K289M pol β; Control in APC sequence): 1.25e+06 M⁻¹ s⁻¹; kpol (K289M pol β; Control in APC sequence): 1.50 s⁻¹; Specificity (kpol/KD) (K289M pol β; Control sequence): 1.15e+06 M⁻¹ s⁻¹
3 | Nc1ccn([C@H]2C[C@H](O)[C@@H](COP(=O)(O)OP(=O)(O)OP(=O)(O)O)O2)c(=O)n1 [dCTP] |  | 0.04 s⁻¹ |  | 0.22 s⁻¹ |  | 0.03 s⁻¹ |  | 0.07 s⁻¹ | 389 µM | 340 µM | 456 µM | 1280 µM |  | 0.05 s⁻¹ | 0.05 s⁻¹ | 0.02 s⁻¹ | 766 µM | 267 µM | 758 µM | 778 µM | D KD (i/c): KD(incorrect)/KD(correct) (WT pol β; APC in Control sequence): 111; D KD (i/c): KD(incorrect)/KD(correct) (WT pol β; APC sequence): 148; D KD (i/c): KD(incorrect)/KD(correct) (WT pol β; Control in APC sequence): 268; D KD (i/c): KD(incorrect)/KD(correct) (WT pol β; Control sequence): 639; D KD (i/c): KD(incorrect)/KD(correct) (K289M pol β; APC in Control sequence): 511; D KD (i/c): KD(incorrect)/KD(correct) (K289M pol β; APC sequence): 205; kpol (K289M pol β; Control in APC sequence): 0.02 s⁻¹; D KD (i/c): KD(incorrect)/KD(correct) (K289M pol β; Control in APC sequence): 758; D KD (i/c): KD(incorrect)/KD(correct) (K289M pol β; Control sequence): 778

Further compounds by falling Kd (WT pol β; APC in Control sequence), results first:

Row | Specificity (kpol/KD) (WT pol β; APC in Control sequence) | kpol (WT pol β; APC in Control sequence) | Specificity (kpol/KD) (WT pol β; APC sequence) | kpol (WT pol β; APC sequence) | Specificity (kpol/KD) (WT pol β; Control in APC sequence) | kpol (WT pol β; Control in APC sequence) | Specificity (kpol/KD) (WT pol β; Control sequence) | kpol (WT pol β; Control sequence) | Kd (WT pol β; APC in Control sequence) | Kd (WT pol β; APC sequence) | Kd (WT pol β; Control in APC sequence) | Kd (WT pol β; Control sequence) | Specificity (kpol/KD) (K289M pol β; APC in Control sequence) | kpol (K289M pol β; APC in Control sequence) | kpol (K289M pol β; APC sequence) | kpol (K289M pol β; Control sequence) | Kd (K289M pol β; APC in Control sequence) | Kd (K289M pol β; APC sequence) | Kd (K289M pol β; Control in APC sequence) | Kd (K289M pol β; Control sequence) | Compound | also measured
4 | 900000 M⁻¹ s⁻¹ | 6.30 s⁻¹ | 1.3e+06 M⁻¹ s⁻¹ | 9.00 s⁻¹ | 1.4e+06 M⁻¹ s⁻¹ | 3.10 s⁻¹ | 4.3e+06 M⁻¹ s⁻¹ | 2.20 s⁻¹ | 6.9 µM | 7.1 µM | 2.2 µM | 0.5 µM | 250000 M⁻¹ s⁻¹ | 1.17 s⁻¹ | 0.70 s⁻¹ | 0.58 s⁻¹ | 4.75 µM | 1.7 µM | 1.6 µM | 2.2 µM | Nc1nc2c(ncn2[C@H]2C[C@H](O)[C@@H](COP(=O)(O)OP(=O)(O)CP(=O)(O)O)O2)c(=O)[nH]1 [CH2] | Specificity (kpol/KD) (K289M pol β; APC sequence): 410000 M⁻¹ s⁻¹; Specificity (kpol/KD) (K289M pol β; Control in APC sequence): 380000 M⁻¹ s⁻¹; kpol (K289M pol β; Control in APC sequence): 0.61 s⁻¹; Specificity (kpol/KD) (K289M pol β; Control sequence): 260000 M⁻¹ s⁻¹
5 | 8.1e+06 M⁻¹ s⁻¹ | 28.5 s⁻¹ | 1.54e+07 M⁻¹ s⁻¹ | 35.5 s⁻¹ | 1.3e+07 M⁻¹ s⁻¹ | 22.1 s⁻¹ | 6.3e+06 M⁻¹ s⁻¹ | 12.6 s⁻¹ | 3.5 µM | 2.3 µM | 1.7 µM | 2 µM | 1e+06 M⁻¹ s⁻¹ | 1.50 s⁻¹ | 0.90 s⁻¹ | 1.52 s⁻¹ | 1.5 µM | 1.3 µM | 1 µM | 1 µM | Nc1nc2c(ncn2[C@H]2C[C@H](O)[C@@H](COP(=O)(O)OP(=O)(O)OP(=O)(O)O)O2)c(=O)[nH]1 [dGTP] | D kpol (c/i): kpol(correct)/kpol(incorrect) (WT pol β; APC in Control sequence): 750; D kpol (c/i): kpol(correct)/kpol(incorrect) (WT pol β; APC sequence): 161; D kpol (c/i): kpol(correct)/kpol(incorrect) (WT pol β; Control in APC sequence): 737; D kpol (c/i): kpol(correct)/kpol(incorrect) (WT pol β; Control sequence): 194; kpol (K289M pol β; [2]): 1.53 s⁻¹; D kpol (c/i): kpol(correct)/kpol(incorrect) (K289M pol β; APC in Control sequence): 30; Specificity (kpol/KD) (K289M pol β; APC sequence): 690000 M⁻¹ s⁻¹; D kpol (c/i): kpol(correct)/kpol(incorrect) (K289M pol β; APC sequence): 18; Specificity (kpol/KD) (K289M pol β; Control in APC sequence): 1.37e+06 M⁻¹ s⁻¹; kpol (K289M pol β; [3]): 1.42 s⁻¹; D kpol (c/i): kpol(correct)/kpol(incorrect) (K289M pol β; Control in APC sequence): 74; Specificity (kpol/KD) (K289M pol β; Control sequence): 1.54e+06 M⁻¹ s⁻¹; D kpol (c/i): kpol(correct)/kpol(incorrect) (K289M pol β; Control sequence): 76; Kd (K289M pol β; [2]): 1.53 µM; Kd (K289M pol β; [3]): 1.04 µM; Kd (K289M pol β; Control sequence, listed as O): 0.99 µM; pKa4 [1]: 8.9
